Measured values: patent publication US8173638B2 (Boehringer Ingelheim International GmbH, priority 2006, dated 2012)

Target: T1, human CB2R (Homo sapiens, UniProt P34972)
T1 construct: host or cells: CHO cells
Experiment: CB2R mediated modulation of cAMP synthesis
Type: cell-based
Conditions: found through the use of the described assays (CB2 agonists); qualitative statement
Protocol: B. CB2R Mediated Modulation of cAMP Synthesis:
CHO cells expressing human CB2R (Euroscreen) were plated at a density of 5000 cells per well in 384 well plates and incubated overnight at 37° C. After removing the media, the cells were treated with test compounds diluted in stimulation buffer containing 1 mM IBMX, 0.25% BSA and 10 uM Forskolin. The assay was incubated for 30 minutes at 37° C. Cells were lysed and the cAMP concentration was measured using DiscoverX-XS cAMP kit, following the manufacturer's protocol. In this setting, agonists will decrease forskolin induced production of cAMP while inverse agonists will further increase forskolin induced production of cAMP. EC50 of agonists were calculated as follows. The maximal amount of cAMP produced by forskolin compared to the level of cAMP inhibited by 1 uM CP55940 is defined as 100%. […] Data was analyzed using a four-parameter logistic model. (Model 205 of XLfit 4.0).

T1 sequence (P34972 whole entry): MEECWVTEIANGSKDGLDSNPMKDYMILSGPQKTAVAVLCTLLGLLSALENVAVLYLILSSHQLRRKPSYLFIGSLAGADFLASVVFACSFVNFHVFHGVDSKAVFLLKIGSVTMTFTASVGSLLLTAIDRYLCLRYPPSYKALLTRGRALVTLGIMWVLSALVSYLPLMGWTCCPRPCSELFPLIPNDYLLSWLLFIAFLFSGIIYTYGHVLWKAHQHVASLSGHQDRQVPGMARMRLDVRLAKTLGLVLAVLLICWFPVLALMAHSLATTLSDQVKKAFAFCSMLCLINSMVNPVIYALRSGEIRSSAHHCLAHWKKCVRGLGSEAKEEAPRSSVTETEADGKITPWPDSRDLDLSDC

Row | SMILES | agonistic activity
1 | O=C(CN1CCCCC1)N1CCCN(C(=O)Nc2ccc3ccccc3c2)CC1 [4-(2-Piperidin-1-yl-acetyl)-[1,4]diazepane-1-carboxylic acid naphthalen-2-ylamide] | agonistic activity
2 | O=C(CC1CCOCC1)N1CCCN(C(=O)Nc2ccc3c(c2)OC(F)(F)O3)CC1 [4-(2-Tetrahydro-pyran-4-yl-acetyl)-[1,4]diazepane-1-carboxylic acid (2,2-difluoro-benzo[1,3]dioxol-5-yl)-amide] | agonistic activity
3 | CCCCc1ccc(NC(=O)N2CCCN(C(=O)CC3CCOCC3)CC2)cc1 [4-(2-Tetrahydro-pyran-4-yl-acetyl)-[1,4]diazepane-1-carboxylic acid (4-butyl-phenyl)-amide] | agonistic activity
4 | CC(C)c1ccc(NC(=O)N2CCCN(C(=O)CC3CCOCC3)CC2)cc1 [4-(2-Tetrahydro-pyran-4-yl-acetyl)-[1,4]diazepane-1-carboxylic acid (4-isopropyl-phenyl)-amide] | agonistic activity
5 | CS(=O)(=O)c1ccc(NC(=O)N2CCCN(C(=O)CC3CCOCC3)CC2)cc1 [4-(2-Tetrahydro-pyran-4-yl-acetyl)-[1,4]diazepane-1-carboxylic acid (4-methanesulfonyl-phenyl)-amide] | agonistic activity
6 | CSc1ccc(NC(=O)N2CCCN(C(=O)CC3CCOCC3)CC2)cc1 [4-(2-Tetrahydro-pyran-4-yl-acetyl)-[1,4]diazepane-1-carboxylic acid (4-methylsulfanyl-phenyl)-amide] | agonistic activity
7 | O=C(CC1CCOCC1)N1CCCN(C(=O)Nc2ccc(C(F)(F)F)cc2)CC1 [4-(2-Tetrahydro-pyran-4-yl-acetyl)-[1,4]diazepane-1-carboxylic acid (4-trifluoromethyl-phenyl)-amide] | agonistic activity
8 | CC(C)(C)c1ccc(NC(=O)N2CCCN(C(=O)CN3CCSCC3)CC2)cc1 [4-(2-Thiomorpholin-4-yl-acetyl)-[1,4]diazepane-1-carboxylic acid (4-tert-butyl-phenyl)-amide] | agonistic activity
9 | CC(C)c1ccc(NC(=O)N2CCCN(C(=O)CC(C)(C)C)CC2)cc1 [4-(3,3-Dimethyl-butyryl)-[1,4]diazepane-1-carboxylic acid (4-isopropyl-phenyl)-amide] | agonistic activity
10 | CC(C)(C)CC(=O)N1CCCN(C(=O)Nc2ccc(C(C)(C)C)cc2)CC1 [4-(3,3-Dimethyl-butyryl)-[1,4]diazepane-1-carboxylic acid (4-tert-butyl-phenyl)-amide] | agonistic activity
11 | O=C(Nc1ccc2ccccc2c1)N1CCCN(C(=O)c2ccc(Cl)c(Cl)c2)CC1 [4-(3,4-Dichloro-benzoyl)-[1,4]diazepane-1-carboxylic acid naphthalen-2-ylamide] | agonistic activity
12 | CC(C)(C)c1ccc(NC(=O)N2CCCN(C(=O)c3cc(Cl)cc(Cl)c3)CC2)cc1 [4-(3,5-Dichloro-benzoyl)-[1,4]diazepane-1-carboxylic acid (4-tert-butyl-phenyl)-amide] | agonistic activity
13 | CC(C)c1ccc(NC(=O)N2CCCN(C(=O)CCC3CCCCC3)CC2)cc1 [4-(3-Cyclohexyl-propionyl)-[1,4]diazepane-1-carboxylic acid (4-isopropyl-phenyl)-amide] | agonistic activity

Second part, the molecule after the results:

Row | agonistic activity | SMILES
14 | agonistic activity | CC(C)(C)c1ccc(NC(=O)N2CCCN(C(=O)CN3CCCCC3)CC2)cc1 [4-(2-Piperidin-1-yl-acetyl)-[1,4]diazepane-1-carboxylic acid (4-tert-butyl-phenyl)-amide]
15 | agonistic activity | CC(C)(C)c1cc(NC(=O)N2CCCN(C(=O)CC3CCCO3)CC2)no1 (stereo not shown) [4-(2-Tetrahydro-furan-2-yl-acetyl)-[1,4]diazepane-1-carboxylic acid (5-tert-butyl-isoxazol-3-yl)-amide]
16 | agonistic activity | O=C(CC1CCOCC1)N1CCCN(C(=O)Nc2ccc3ccccc3c2)CC1 [4-(2-Tetrahydro-pyran-4-yl-acetyl)-[1,4]diazepane-1-carboxylic acid (2-naphthyl)-amide]
17 | agonistic activity | O=C(CC1CCOCC1)N1CCCN(C(=O)Nc2cc(Cl)cc(Cl)c2)CC1 [4-(2-Tetrahydro-pyran-4-yl-acetyl)-[1,4]diazepane-1-carboxylic acid (3,5-dichloro-phenyl)-amide]
18 | agonistic activity | CCc1ccc(NC(=O)N2CCCN(C(=O)CC3CCOCC3)CC2)cc1 [4-(2-Tetrahydro-pyran-4-yl-acetyl)-[1,4]diazepane-1-carboxylic acid (4-ethyl-phenyl)-amide]
19 | agonistic activity | CCCCCc1ccc(NC(=O)N2CCCN(C(=O)CC3CCOCC3)CC2)cc1 [4-(2-Tetrahydro-pyran-4-yl-acetyl)-[1,4]diazepane-1-carboxylic acid (4-pentyl-phenyl)-amide]
20 | agonistic activity | CCC(C)c1ccc(NC(=O)N2CCCN(C(=O)CC3CCOCC3)CC2)cc1 (stereo not shown) [4-(2-Tetrahydro-pyran-4-yl-acetyl)-[1,4]diazepane-1-carboxylic acid (4-sec-butyl-phenyl)-amide]
21 | agonistic activity | CC(C)(C)c1ccc(NC(=O)N2CCCN(C(=O)CC3CCOCC3)CC2)cc1 [4-(2-Tetrahydro-pyran-4-yl-acetyl)-[1,4]diazepane-1-carboxylic acid (4-tert-butyl-phenyl)-amide]
22 | agonistic activity | O=C(CC1CCOCC1)N1CCCN(C(=O)Nc2ccc(OC(F)(F)F)cc2)CC1 [4-(2-Tetrahydro-pyran-4-yl-acetyl)-[1,4]diazepane-1-carboxylic acid (4-trifluoromethoxy-phenyl)-amide]
23 | agonistic activity | CC(C)(C)c1cc(NC(=O)N2CCCN(C(=O)CN3CCSCC3)CC2)no1 [4-(2-Thiomorpholin-4-yl-acetyl)-[1,4]diazepane-1-carboxylic acid (5-tert-butyl-isoxazol-3-yl)-amide]
24 | agonistic activity | O=C(CC1CCCC1)N1CCCN(C(=O)Nc2ccc(SC(F)(F)F)cc2)CC1 [4-(2-cyclopentyl-acetyl)-[1,4]diazepane-1-carboxylic acid (4-trifluoromethylsulfanyl-phenyl)-amide]
25 | agonistic activity | CC(C)(C)CC(=O)N1CCCN(C(=O)Nc2ccc3ccccc3c2)CC1 [4-(3,3-Dimethyl-butyryl)-[1,4]diazepane-1-carboxylic acid naphthalen-2-ylamide]
26 | agonistic activity | CC(C)(C)c1ccc(NC(=O)N2CCCN(C(=O)c3ccc(Cl)c(Cl)c3)CC2)cc1 [4-(3,4-Dichloro-benzoyl)-[1,4]diazepane-1-carboxylic acid (4-tert-butyl-phenyl)-amide]
27 | agonistic activity | CC(C)c1ccc(NC(=O)N2CCCN(C(=O)c3cccc(Cl)c3)CC2)cc1 [4-(3-Chloro-benzoyl)-[1,4]diazepane-1-carboxylic acid (4-isopropyl-phenyl)-amide]
28 | agonistic activity | CCCCc1ccc(NC(=O)N2CCCN(C(=O)CCC3CCCCC3)CC2)cc1 [4-(3-Cyclohexyl-propionyl)-[1,4]diazepane-1-carboxylic acid (4-butyl-phenyl)-amide]
